Measured values reported in US8877208B2 (priority 2008, dated 2014).
Entries after “also recorded” stand apart in the source; their conditions may differ.

System: virus

TRITON-X100
biocidal activity against virus (ability to inactivate a virus): less biocidal activity; also recorded: less ability to inactivate a virus
